Laboratory results reported in publication PMC8933379, “Evaluation of the absolute oral bioavailability of the anaplastic lymphoma kinase/c-ROS oncogene 1 kinase inhibitor lorlatinib in healthy participants” (Cancer Chemotherapy and Pharmacology, 2021).
Entries after “also recorded” stand apart in the source; their conditions may differ. Like-named read-outs stand apart in the source and are kept apart here.

What was measured:
[1] = design: method as in earlier work; conditions: cited from earlier work
[2] = cited from earlier work; for Mean half-life: previous drug interaction studies
human blood = conditions: planned IV dose formulation, human blood in vitro; earlier toxicology studies, no reference given; cited from earlier work
[3] = design: method as in PMID 24819116; conditions: in vitro; cited from earlier work
[4] = dogs; animal studies, no reference given; cited from earlier work
[5] = design: method as in PMID 32441835; conditions: cited from earlier work; for Total drug-related radioactivity (parent plus metabolites) recovered in urine: depends on radioactivity placement on the molecule
[6] = rats; animal studies, no reference given; cited from earlier work
[7] = design: method as in PMID 33937953; conditions: co-administered with modafinil; cited from earlier work
[8] = Safety evaluation (adverse events) in the crossover study
Protocol: Safety assessments were performed at screening, during the study, and at study completion, clinic discharge, or early termination. Safety assessments included physical examinations, 12‐lead ECGs, vital signs, and clinical laboratory evaluations. All adverse events (AEs) and concomitant treatments were monitored and recorded throughout the study. AEs were reported using NCI CTCAE terminology.

[9] = cited from earlier work; for Mean half-life: previous drug interaction studies; remark: listed apart in the source
[10] = 100 mg single oral dose of [14C]lorlatinib, healthy participants

C[C@H]1Oc2cc(cnc2N)-c2c(nn(C)c2C#N)CN(C)C(=O)c2ccc(F)cc21 [Lorlatinib, (10R)-7-amino-12-fluoro-2,10,16-trimethyl-15-oxo-10,15,16,17-tetrahydro-2H-8,4-(metheno)pyrazolo[4,3-h][2,5,11]-benzoxadiazacyclotetradecine-3-carbonitrile]
Oral apparent clearance (CL/F), mean (CV%) ([1]; after a 100 mg single oral dose): 11 L/h
Oral apparent clearance (CL/F), mean (CV%) ([1]; at steady-state): 18 L/h
Plasma terminal half-life (t½), mean (CV%) [1]: approximately 24 h
AUCinf reduction ([2]; co-administered with rifampicin): 85%
Mean half-life ([2]; lorlatinib alone, rifampin study): 29 h
Mean half-life ([2]; with the inducer rifampin): 18 h
Potential to cause hemolysis (human blood): did not indicate any potential to cause hemolysis
Permeability [3]: highly permeable
Absolute bioavailability [4]: ~97%
Unchanged lorlatinib recovered in faeces [5, 10]: ~ 9%
Unchanged lorlatinib recovered in urine [5, 10]: < 1%
Total drug-related radioactivity (parent plus metabolites) recovered in urine ([5]; first of two values): 48%
Total drug-related radioactivity (parent plus metabolites) recovered in urine ([5]; second of two values): 28%
Absolute bioavailability [6]: approximately 100%
AUCinf reduction [7]: 23%
Tolerability ([8]; 50 mg IV dose and 100 mg single oral dose, healthy participants): generally well-tolerated
Number of TEAEs (treatment-emergent adverse events) ([8]; 50 mg IV, n = 11): 8
Number of TRAEs (treatment-related adverse events) ([8]; 50 mg IV, n = 11): 6
Number of participants who reported AEs ([8]; 50 mg IV, n = 11): 4
Participants with AEs: Abdominal discomfort, all causality ([8]; 50 mg IV, n = 11): 0
Participants with AEs: Contusion, TRAE ([8]; 50 mg IV, n = 11): 0
Participants with AEs: Contusion, all causality ([8]; 50 mg IV, n = 11): 1
Participants with AEs: Dizziness, TRAE ([8]; 50 mg IV, n = 11): 1 (1)
Participants with AEs: Dizziness, all causality ([8]; 50 mg IV, n = 11): 1 (1)
Participants with AEs: Dysuria, all causality ([8]; 50 mg IV, n = 11): 0
Participants with AEs: Eye disorders, all causality ([8]; 50 mg IV, n = 11): 0
Participants with AEs: Gastrointestinal disorders, all causality ([8]; 50 mg IV, n = 11): 0
Participants with AEs: General disorders and administration side conditions, all causality ([8]; 50 mg IV, n = 11): 0
Participants with AEs: Headache, TRAE ([8]; 50 mg IV, n = 11): 2 (2)
Participants with AEs: Headache, all causality ([8]; 50 mg IV, n = 11): 2 (2)
Participants with AEs: Injury, poisoning and procedural complications, TRAE ([8]; 50 mg IV, n = 11): 0
Participants with AEs: Injury, poisoning and procedural complications, all causality ([8]; 50 mg IV, n = 11): 1
Participants with AEs: Investigations, TRAE ([8]; 50 mg IV, n = 11): 1 (1)
Participants with AEs: Investigations, all causality ([8]; 50 mg IV, n = 11): 1 (1)
Participants with AEs: Mental impairment, all causality ([8]; 50 mg IV, n = 11): 0
Participants with AEs: Nausea, all causality ([8]; 50 mg IV, n = 11): 0
Participants with AEs: Nervous system disorders, TRAE ([8]; 50 mg IV, n = 11): 2 (2)
Participants with AEs: Nervous system disorders, all causality ([8]; 50 mg IV, n = 11): 2 (2)
Participants with AEs: Nervousness, TRAE ([8]; 50 mg IV, n = 11): 0
Participants with AEs: Nervousness, all causality ([8]; 50 mg IV, n = 11): 1
Participants with AEs: Paraesthesia, TRAE ([8]; 50 mg IV, n = 11): 1 (1)
Participants with AEs: Paraesthesia, all causality ([8]; 50 mg IV, n = 11): 1 (1)
Participants with AEs: Photophobia, all causality ([8]; 50 mg IV, n = 11): 0
Participants with AEs: Psychiatric disorders, TRAE ([8]; 50 mg IV, n = 11): 0
Participants with AEs: Psychiatric disorders, all causality ([8]; 50 mg IV, n = 11): 1
Participants with AEs: Renal and urinary disorders, all causality ([8]; 50 mg IV, n = 11): 0
Participants with AEs: Somnolence, all causality ([8]; 50 mg IV, n = 11): 0
Participants with AEs: Transaminase increased, TRAE ([8]; 50 mg IV, n = 11): 1 (1)
Participants with AEs: Transaminase increased, all causality ([8]; 50 mg IV, n = 11): 1 (1)
Participants with AEs: Visual field defect, TRAE ([8]; 50 mg IV, n = 11): 1 (1)
Participants with AEs: Visual field defect, all causality ([8]; 50 mg IV, n = 11): 1 (1)
Deaths, serious AEs, severe AEs, discontinuations or dose reductions due to AEs ([8]; 100 mg oral and 50 mg IV, 11 healthy participants): No deaths, serious adverse events (AEs), or severe AEs were reported; also recorded: No deaths, serious AEs, severe AEs, permanent discontinuations, temporary discontinuations, or dose reductions due to AEs were reported
Number of TEAEs (treatment-emergent adverse events) ([8]; 100 mg oral tablets, n = 11): 12
Number of TRAEs (treatment-related adverse events) ([8]; 100 mg oral tablets, n = 11): 9
Participants with AEs: Abdominal discomfort, TRAE ([8]; 100 mg oral tablets, n = 11): 0
Participants with AEs: Abdominal discomfort, all causality ([8]; 100 mg oral tablets, n = 11): 1
Participants with AEs: Contusion, all causality ([8]; 100 mg oral tablets, n = 11): 0
Participants with AEs: Dizziness, TRAE ([8]; 100 mg oral tablets, n = 11): 1 (1)
Participants with AEs: Dizziness, all causality ([8]; 100 mg oral tablets, n = 11): 1 (1)
Participants with AEs: Dysuria, TRAE ([8]; 100 mg oral tablets, n = 11): 1 (1)
Participants with AEs: Dysuria, all causality ([8]; 100 mg oral tablets, n = 11): 1 (1)
Participants with AEs: Eye disorders, TRAE ([8]; 100 mg oral tablets, n = 11): 1 (1)
Participants with AEs: Eye disorders, all causality ([8]; 100 mg oral tablets, n = 11): 1 (1)
Participants with AEs: Gastrointestinal disorders, TRAE ([8]; 100 mg oral tablets, n = 11): 0
Participants with AEs: Gastrointestinal disorders, all causality ([8]; 100 mg oral tablets, n = 11): 2
Participants with AEs: General disorders and administration side conditions, TRAE ([8]; 100 mg oral tablets, n = 11): 0
Participants with AEs: General disorders and administration side conditions, all causality ([8]; 100 mg oral tablets, n = 11): 1
Participants with AEs: Headache, TRAE ([8]; 100 mg oral tablets, n = 11): 2 (2)
Participants with AEs: Headache, all causality ([8]; 100 mg oral tablets, n = 11): 2 (2)
Participants with AEs: Injury, poisoning and procedural complications, all causality ([8]; 100 mg oral tablets, n = 11): 0
Participants with AEs: Investigations, TRAE ([8]; 100 mg oral tablets, n = 11): 1 (1)
Participants with AEs: Investigations, all causality ([8]; 100 mg oral tablets, n = 11): 1 (1)
Participants with AEs: Mental impairment, TRAE ([8]; 100 mg oral tablets, n = 11): 1 (1)
Participants with AEs: Mental impairment, all causality ([8]; 100 mg oral tablets, n = 11): 1 (1)
Participants with AEs: Nausea, TRAE ([8]; 100 mg oral tablets, n = 11): 0
Participants with AEs: Nausea, all causality ([8]; 100 mg oral tablets, n = 11): 1
Participants with AEs: Nervous system disorders, TRAE ([8]; 100 mg oral tablets, n = 11): 3 (3)
Participants with AEs: Nervous system disorders, all causality ([8]; 100 mg oral tablets, n = 11): 3 (3)
Participants with AEs: Nervousness, all causality ([8]; 100 mg oral tablets, n = 11): 0
Participants with AEs: Paraesthesia, TRAE ([8]; 100 mg oral tablets, n = 11): 1 (1)
Participants with AEs: Paraesthesia, all causality ([8]; 100 mg oral tablets, n = 11): 1 (1)
Participants with AEs: Photophobia, TRAE ([8]; 100 mg oral tablets, n = 11): 1 (1)
Participants with AEs: Photophobia, all causality ([8]; 100 mg oral tablets, n = 11): 1 (1)
Participants with AEs: Psychiatric disorders, all causality ([8]; 100 mg oral tablets, n = 11): 0
Participants with AEs: Renal and urinary disorders, TRAE ([8]; 100 mg oral tablets, n = 11): 1 (1)
Participants with AEs: Renal and urinary disorders, all causality ([8]; 100 mg oral tablets, n = 11): 1 (1)
Participants with AEs: Somnolence, TRAE ([8]; 100 mg oral tablets, n = 11): 1 (1)
Participants with AEs: Somnolence, all causality ([8]; 100 mg oral tablets, n = 11): 1 (1)
Participants with AEs: Transaminase increased, TRAE ([8]; 100 mg oral tablets, n = 11): 1 (1)
Participants with AEs: Transaminase increased, all causality ([8]; 100 mg oral tablets, n = 11): 1 (1)
Participants with AEs: Visual field defect, all causality ([8]; 100 mg oral tablets, n = 11): 0
Number of participants who reported AEs ([8]; 100 mg oral, n = 11): 4
AUCinf increase ([9]; co-administered with itraconazole): 42%
Mean half-life ([9]; lorlatinib alone, itraconazole study): 23 h
Mean half-life ([9]; with the inhibitor itraconazole): 30 h
